# Entries after “also recorded” stand apart in the source; their conditions may differ.
# How the values were obtained:
# [1] = system: colon and intestinal tumors; design: method as in Schneider et al., 2001; conditions: Min mice; ref Schneider et al., 2001; cited from earlier work
# [2] = Cell viability assay (XTT), 24 h treatment; format: cell-based
# Description: (§1) CHO-K1 and HepG2 cells were obtained from the Cell Bank of Rio de Janeiro (BCRJ code 0069 and 0103, respectively) and cultured in complete medium containing DMEM+F10 nutrient mixture (1:1, v/v), supplemented with fetal bovine serum (10%, v/v) and penicillin/streptomycin stabilized solution (10 mL/L). Cell cultures were incubated at 37 °C with atmosphere saturated with 5% of CO2. All experiments were conducted between the 3rd and the 8th passages and three experimental repetitions were performed.
# (§2) Doxorubicin (DOX) was dissolved in ultrapure sterile water in a stock solution of 900 μM. All reagents were dissolved prior to use and protected from light. For all experiments, cells were submitted to 24 h treatment with different concentrations of the tested substance and DOX was used as positive control in CHO-K1 cells. Benzo(a)pyrene [B(a)P] at 25 μM was used as positive control in HepG2 cells.
# To determine cell viability, 10^4 cells/well were seeded on a 96-well plate. […] The plates were washed twice in phosphate buffer saline (PBS 1X) and incubated for 4 h at 37 °C with DMEM without phenol red and supplemented with the reagents of the Cell Proliferation Kit (XTT) as recommended by the manufacturer. Total absorbance was measured at 492 and 690 nm (reference) using a microplate reader (ASYS, Eugendorf, Salzburg, Austria).
# CHO-K1 cells [3] = experiment: Clonogenic survival assay; format: cell-based; conditions: for survival fraction: 24 h treatment
# Description: as §1, §2
# (§3) The clonogenic assay was performed according to [Franken et al. (2006)]. Briefly, 200 cells/well were plated in 6 well plates containing 3 mL of complete medium. After 4 h of incubation at 37 °C, the cells were treated with different concentrations of the testing stilbenes for 24 h, then each well was washed with PBS 1X and complete medium was added. The cells were allowed to grow for 7–14 days at 37 °C and 5% of CO2, when colonies were visible. The colonies formed were fixed with methanol/acetic acid/water (1:1:8 v/v/v) and stained with Giemsa 5% (v/v) in Sorensen phosphate buffer (pH 6.8). The colonies were counted, and the cell survival fraction was calculated as percent colonies relative to the untreated control.
# HepG2 cells [4] = experiment: Clonogenic survival assay; format: cell-based; conditions: for survival fraction: 24 h treatment
# Description: as §1, §2, §3
# CHO-K1 cells [5] = experiment: Cytokinesis-block micronucleus assay (CBMN); format: cell-based; conditions: for mean micronucleus (MN) frequency: 24 h
# Description: as §1, §2
# (§4) For the micronucleus test, 10^6 cells were seeded in […] culture flasks containing complete medium. Cell cultures were allowed to grow for 24 h, then treated with different concentrations of the stilbene derivatives. Simultaneously, cytochalasin B (6 μg/mL) was added to each cell culture to inhibit cytokinesis. After 24 h of incubation, cells were harvested with a hypotonic treatment (KCl 0.075 M) and fixed twice with methanol:acetic acid (3:1). Thereafter, the cell suspension was smeared on pre-cleaned microscope slides and air-dried. Staining was performed during 15 min with Giemsa at 5% in Sorensen Buffer (v/v). Microscope slides were washed in tap water and allowed to dry at room temperature overnight. The frequency of micronucleus (MN), frequency of binucleated cells with micronucleus (BCMN) and frequency of nucleoplasmic bridges (NB) were obtained by the analysis of 1000 binucleated cell/culture/treatment as previously described by [Fenech (2000)]. A total of 500 cells/culture/treatment were analyzed to determine the Nuclear Division Index (NDI) by scoring cells with 1, 2, 3 or 4 nuclei and using the formula: NDI= M1+2(M2)+3(M3)+4(M4)/N, where, M1–M4 stand for the number of cells with 1–4 nuclei and N is the total number of viable cells analyzed.
# HepG2 cells [6] = experiment: Cytokinesis-block micronucleus assay (CBMN); format: cell-based; conditions: for nuclear bridges (NB): HepG2; for mean micronucleus (MN) frequency: 24 h
# Description: as §1, §2, §4
# [7] = system: CHO-K1 and HepG2 cell lines; experiment: Clonogenic survival assay, statements not split by cell line; conditions: based on clonogenic survival assay
# Description: as §1, §2
# as §3, with “The cells were allowed to grow for 7–14 days at 37 °C and 5% of CO2, when colonies were visible. The colonies formed were fixed with methanol/acetic acid/water (1:1:8 v/v/v) and stained with Giemsa 5% (v/v) in Sorensen phosphate buffer (pH 6.8).” left out
# HT-29 xenografts = system: HT-29 xenografts; design: method as in Paul et al. (2010); conditions: HT-29 xenografts model of colon cancer; ref Paul et al. (2010); cited from earlier work
# Caco-2 cells = system: Caco-2 cells; design: method as in Schneider et al. (2003); conditions: ref Schneider et al. (2003); cited from earlier work
# tubulin = system: tubulin; design: method as in Schneider et al. (2003); conditions: ref Schneider et al. (2003); cited from earlier work
# [8] = design: method as in Paul et al. (2010); conditions: in vivo; ref Paul et al. (2010); cited from earlier work
# [9] = system: colonic aberrant crypt foci (ACF); design: method as in Suh et al., 2007; conditions: ref Suh et al., 2007; cited from earlier work
# Colo 205 xenograft = system: Colo 205 xenograft; design: method as in Pan et al., 2008; conditions: Colo 205 xenograft model of colon cancer; ref Pan et al., 2008; cited from earlier work
# [10] = Chinese hamster, CHO-K1, 7.8 μM (lowest concentration)
# [11] = human, HepG2, 7.8 μM (lowest concentration)
compound,measurement,setting,value
Oc1ccc(/C=C/c2cc(O)cc(O)c2)cc1 [Resveratrol],prevention of formation of colon and intestinal tumors,[1],70%
"COc1ccc(/C=C\c2cc(OC)cc(OC)c2)cc1 [cis-TMS, (Z)-1,3-dimethoxy-5-(4-methoxystyryl)benzene]","viability at 24 h, 7.8 µM",[2]; [10],60.7%
same,"viability at 24 h, 7.8 µM",[2]; [11],49%
same,survival fraction,"CHO-K1 cells [3]; CHO-K1, 0.078 μM",45.8%
same,survival fraction,"CHO-K1 cells [3]; CHO-K1, 0.156 μM",36.8%
same,survival fraction,"CHO-K1 cells [3]; CHO-K1, 0.3125 μM",13.9%
same,cells killed (clonogenic assay),"CHO-K1 cells [3]; CHO-K1, all concentrations tested (2.5 μM upwards)",100%
same,survival fraction,"HepG2 cells [4]; HepG2, 0.078 μM",41.3%
same,survival fraction,"HepG2 cells [4]; HepG2, 0.156 μM",54.3%
same,survival fraction,"HepG2 cells [4]; HepG2, 0.3125 μM",16.9%
same,survival fraction,"HepG2 cells [4]; HepG2, 0.625 μM",6.2%
same,cells killed (clonogenic assay),"HepG2 cells [4]; HepG2, at 2.5, 5 and 10 μM",100%
same,mean micronucleus (MN) frequency,"CHO-K1 cells [5]; CHO-K1, 0.125 μM",2.8 MN/100 cells
same,mean micronucleus (MN) frequency,"CHO-K1 cells [5]; CHO-K1, 0.5 μM",5.2 MN/100 cells
same,nuclear bridges (NB),HepG2 cells [6],No significant induction
same,mean micronucleus (MN) frequency,"HepG2 cells [6]; HepG2, 0.125 μM",3.5 MN/100 cells
same,mean micronucleus (MN) frequency,"HepG2 cells [6]; HepG2, 0.5 μM",6.1 MN/100 cells
same,fold more cytotoxic than the amino and ester,[7],approximately 250 fold
same,fold more cytotoxic than trans-TMS,[7],128 fold
same,"effect on tumor (volume, weight) in vivo",HT-29 xenografts,not active in vivo
same,cell cycle effect in Caco-2 cells,Caco-2 cells,arrest of the cell cycle progression at the G2/M transition phase
same,tubulin polymerization,tubulin,inhibited tubulin polymerization in a dose-dependent manner
same,bioavailability,[8],low bioavailability
COc1cc(/C=C/c2ccc(O)cc2)cc(OC)c1 [pterostilbene],formation of azoxymethane-induced colonic aberrant crypt foci (ACF),[9],reduced the formation
"COc1ccc(/C=C/c2cc(OC)cc(OC)c2)cc1 [trans-TMS, (E)-1,3-dimethoxy-5-(4-methoxystyryl)benzene]","viability at 24 h, 7.8 µM",[2]; [10],62.5%
same,"viability at 24 h, 7.8 µM",[2]; [11],59.1%
same,concentration from which colony formation is significantly reduced,CHO-K1 cells [3]; CHO-K1 (stated for both cell lines),5 µM
same,"frequency of survival fraction, result in words","CHO-K1 cells [3]; CHO-K1, 2.5-20 μM",significant concentration-dependent reduction
same,concentration from which colony formation is significantly reduced,HepG2 cells [4]; HepG2 (stated for both cell lines),5 µM
same,"frequency of survival fraction, result in words","HepG2 cells [4]; HepG2, 2.5-20 μM",significant concentration-dependent reduction
same,"micronucleus (MN) frequency, result in words","CHO-K1 cells [5]; CHO-K1, all concentrations, compared to NC",no significant MN frequency
same,nuclear bridges (NB),HepG2 cells [6],No significant induction
same,"micronucleus (MN) frequency, result in words","HepG2 cells [6]; HepG2, all tested concentrations",significantly increased
same,tumor growth,Colo 205 xenograft,significantly reduced tumor growth
same,"effect on tumor (volume, weight) in vivo",HT-29 xenografts,significantly reduced tumor volume; also recorded: significantly decreased tumor volume and weight
same,fold less effective in inhibiting the growth of Caco-2 cells than the cis isomer,Caco-2 cells,100 fold
same,serum levels,[8],much higher serum levels than the cis-TMS

# Source: article PMC5596366, “Cytotoxicity and genotoxicity of stilbene derivatives in CHO-K1 and HepG2 cell lines” (Genetics and Molecular Biology, 2017)
